These results are taken from patent US6114381A, “Non-heterocyclic β-phenyl-α-aminopropionic acid n-phenyl amides for treatment of neurotoxic injury” (priority 1998, dated 2000).

Counter-ions that a name gives are not always drawn. Like-named read-outs stand apart in the source and are kept apart here.

Assay [1] relates to CAl region of the hippocampus. Description: Forebrain ischemia assay (carotid occlusion, CA1 hippocampal cell loss). The class given is in vivo, Mongolian gerbil. Conditions: 30 mg/kg i.p. 30 min prior to carotid occlusion; 7 days after; n=6 vs 69 saline gerbils; Mann-Whitney U, p<0.005. As for the experimental part:
Male Mongolian gerbils, 50-70 gm, were used as subjects. Compound No. 4 (30 mg/kg) was injected i.p. 30 minutes prior to carotid occlusion into 6 gerbils. In preparation for surgical procedures, the animals were lightly anesthetized with methoxyflurane and placed upside down on a heated pad with the animal's snout within a nosecone. A mixture of 70 parts nitrous oxide, 30 parts oxygen and 0.5 part halothane was circulated through the nosecone to provide continuous anesthesia throughout the surgical procedure. A midline incision was made in the neck and the carotid arteries were exposed. A length of suture thread was placed under each carotid. The thread was then tightened around each carotid and pressure applied to the thread to insure flow was occluded. Flow was occluded for 4-5 minutes and then the thread was removed. The carotids were visually inspected to confirm that reflow had occurred. The wound was then closed with autoclips and the gerbils allowed to recover. Following surgery, the gerbils were kept alive for 7 days. They were anesthetized with 100 mg/kg sodium pentobarbital and perfused transcardially with saline (with heparin) followed by buffered formalin. The brain was removed, trimmed and prepared for histological processing. Sections (10 microns) were stained with thionin. […]

A further assay concerns the target PCP receptors. Nature of the assay: Radioreceptor assay (3H-TCP displacement, rat brain membranes). Conditions: read-out: Ki apparent, 1 nM 3H-TCP, whole rat brain membranes, 1 h incubation, Cheng & Prusoff.
A short description of assay [2]: Behavioral assay (stereotyped behavior, PCP rating scale). The class given is in vivo, rat (male Sprague-Dawley). As for the experimental part: Compound No. 4 was tested by an in vivo assay which determined stereotypic behavior in rats treated with the compound. Male Sprague-Dawley rats weighing 200 to 250 g were used in the behavioral experiments. Each rat was used only once. Rats were anesthetized lightly with ether before a 20-gauge needle was used to make a hole in the rat's skull for i.c.v. injection of drugs at a later date. These rats were allowed to recover for at least 1 day before being used in the behavioral assays. On the day of the experiement, rats were placed individually into plastic rat cages and allowed at least 1 hr to acclimate before testing. Drugs were administered to rats in a random, single-blind fashion. Behavioral ratings were taken at 5-min intervals up to 1 hr after drug administration (i.p.) using the PCP rating scale as described by Sturgeon et al [Sturgeon, R. D., Fessler, R. G. and Meltzer, H. Y., "Behavioral Rating Scales for Accessing Phencyclidine-Induced Locomotor Activity. […] Dose-response curves for each treatment were determined at the time of maximal behavioral effect. […] ED50 values and dose-response curves were evaluated using a computerized Finney assay [Statistical Methods in Biological Assays, 2nd Edn., Hatner Pub. […] The ability of the Compound No. 4 to induce stereotyped behavior was assessed at 2.5, 5 and 10 minutes and thereafter every 5 min up to 1 hr after i.p. administration.

In assay [3] the test system is NMDA. The following applies: Anis et al, Br. J. Pharmacol. 1983; cited from earlier work.
Assay [4] concerns rat cerebral cortical membranes. The following applies: Goldman et al, FEBS Lett.; cited from earlier work.
The test system of assay [5] is NMDA. The following applies: Berry et al, Eur. J. Pharm. 1983; binding and behavioral data; cited from earlier work.

For the molecule `Cc1cc(O)cc(C)c1C[C@H](N)C(=O)N1CCCc2ccccc21` [Compound No. 4, 1-[2S-amino-3-(4-hydroxy-2,6-dimethylphenyl)-1-oxopropyl]-1,2,3,4-tetrahydroquinoline, monohydrochloride], in assay [1], the “cell loss in CA1” value is “significantly reduced”. On PCP receptors, the Ki turned out to be 16 nM. Moreover, the ED50 in assay [2] (Rattus norvegicus, ip, rats, PCP rating scale, at time of maximal effect, read-out: ED50 for induction of stereotyped behavior) is 11 mg/kg.

For `N[C@@H](Cc1ccc(O)cc1)C(=O)N1CCCc2ccccc21` [Compound No. 1, 1-[2S-amino-3-(4-hydroxyphenyl)-1-oxopropyl]-1,2,3,4-tetrahydroquinoline, monohydrochloride], the Ki at PCP receptors came out at 7100 nM.

Consider `Cc1cc(O)cc(C)c1C[C@H](N)C(=O)N1CC(C)Cc2ccccc21` (single isomer, unassigned) [Compound No. 6, 1-[-2S-amino-3-(4-hydroxy-2,6-dimethlyphenyl)-1-oxopropyl]-1,2,3,4-tetrahydro-3-methylquinoline, hydrochloride], for which, at PCP receptors (hydrochloride), the Ki was found to be 240 nM.

With `Cc1cc(O)cc(C)c1C[C@H](N)C(=O)N1CCCc2cccc(O)c21` [Compound No. 11, 1-[2S-amino-3-(4-hydroxy-2,6-dimethylphenyl)-1-oxopropyl]-1,2,3,4-tetrahydro-8-hydroxyquinoline, monohydrochloride], the Ki at PCP receptors came to 420 nM. As to `CNC1(c2ccccc2Cl)CCCCC1=O` (stereo not shown) [ketamine], the “reduction of excitatory effects of NMDA as compared to KA and QUIS” value in the assay on NMDA [3] is “reduce selectively the excitatory effects of NMDA”. On to `CC1CCCN(C2(c3ccccc3)CCCCC2)C1` (single isomer, unassigned; (+)) [(+)-PCMP, (+)-1-(1-phenylcyclohexyl)-3-methylpiperidine], for which, in assay [4], the “inhibition of specific binding of [3H]PCP” value is reported as “potent inhibitor”. In addition, the “stereoselective effect over corresponding isomer in reducing the excitatory action of NMDA” value in the assay on NMDA [5] was “confirmed”.

As for `Cc1cc(O)cc(C)c1C[C@H](N)C(=O)N(C)c1ccccc1` [Compound No. 3, αS-amino-4-hydroxy-N,2,6-trimethyl-N-phenylbenzenepropanamide, monohydrochloride], at PCP receptors, the Ki was 2600 nM. Consider `CC1CCC(c2ccccc2)(N2CCCCC2)CC1` (stereo not drawn) [cis-N-(1-phenyl-4-methylcyclohexyl)piperidine], for which the “stereoselective effect over corresponding isomer in reducing the excitatory action of NMDA” value in the assay on NMDA [5] was “confirmed”. For `c1ccc(C2(N3CCCCC3)CCCCC2)cc1` [PCP, Phencyclidine, reference compound], in the assay with NMDA [3], the “reduction of excitatory effects of NMDA as compared to KA and QUIS” value is given as “reduce selectively the excitatory effects of NMDA”. Moreover, the Ki at PCP receptors is 96 nM. Moreover, in assay [2] (PCP 2.0-32 mg/kg i.p.), the “time of peak effects (stereotyped behavior)” value is given as 15 min. As for `Cc1cc(O)cc(C)c1C[C@@H](N)C(=O)N1CCCc2ccccc21` [Compound No. 5, 1-[2R-amino-3-(4-hydroxy-2,6-dimethylphenyl)-1-oxopropyl]-1,2,3,4-tetrahydroquinoline, monohydrochloride], the Ki at PCP receptors was 100 nM. With `COc1cc(C)c(C[C@H](N)C(=O)N2CCCc3ccccc32)c(C)c1` [Compound No. 10, 1-[2S-amino-3-(4-methoxy-2,6-dimethylphenyl)-1-oxopropyl]-1,2,3,4-tetrahydroquinoline, monohydrochloride], the Ki at PCP receptors is 4500 nM. Same read-out and setting: with `Cc1cc(O)cc(C)c1C[C@H](N)C(=O)N1Cc2ccccc2CCc2ccccc21` [Compound No. 12, 5-[2S-amino-3-(4-hydroxy-2,6-dimethylphenyl)-1-oxopropyl]-5,6,11,12-tetrahydrodibenz[b,f]azocine, monohydrochloride] the figure was 20000 nM; with `c1csc(C2(N3CCCCC3)CCCCC2)c1` [TCP, reference compound], 20 nM; with `Cc1cc(O)ccc1C[C@H](N)C(=O)N1CCCc2ccccc21` [Compound No. 2, 1-[2S-amino-3-(4-hydroxy-2-methylphenyl)-1-oxopropyl]-1,2,3,4-tetrahydroquinoline, monohydrochloride], 800 nM. Take `Cc1cc(O)cc(C)c1C[C@H](N)C(=O)N1CC(C)Cc2ccccc21` (single isomer, unassigned) [Compound No. 7, 1-[2S-amino-3-(4-hydroxy-2,6-dimethylphenyl)-1-oxopropyl]-1,2,3,4-tetrahydro-3-methylquinoline, hydrochloride]: the Ki at PCP receptors (hydrochloride) was found to be 880 nM.

With `Cc1cc(O)cc(C)c1C[C@H](N)C(=O)N1CCc2ccccc21` [Compound No. 8, 1-[2S-amino-3-(4-hydroxy-2,6-dimethylphenyl)-1-oxopropyl]-2,3-dihydro-1H-indole, monohydrochloride], the Ki at PCP receptors was 1450 nM. On to `COc1ccc2c(c1)CCCN2C(=O)[C@@H](N)Cc1c(C)cc(O)cc1C` [Compound No. 9, 1-[2S-amino-3-(4-hydroxy-2,6-dimethylphenyl)-1-oxopropyl]-1,2,3,4-tetrahydro-6-methoxyquinoline, monohydrochloride], for which the Ki on PCP receptors turned out to be 4100 nM.
